Source: article PMC5078989, “Targeted inhibition of the COP9 signalosome for treatment of cancer” (Nature Communications, 2016)

Key:
[1] = tested on: TE-1 cells; test: Cell viability assay (CellTiter-Glo), TE-1; type: cell-based, human; conditions: TE-1, 72 h; cytostatic
Experimental: Cells were maintained in a humidified incubator at 37 °C and 5% CO2. […] All cells were negatively tested for mycoplasma contamination either by the vendor or in house. […] If not stated otherwise, cells were harvested after incubation for 16 h and subjected to SDS-PAGE and western blotting. The RNA interference experiment was performed with CSN5 stealth siRNA (#HSS116986) and stealth negative control siRNA (#12935-400) (Invitrogen), which were transfected at 10 nM into HCT116 cells using […] (Qiagen) according to the manufacturer's protocols. Seventy-two hours after transfection, cells were harvested and subjected to SDS-PAGE and western blotting (see Supplementary Fig. 7 for all western blottings performed). A standardized CellTiter-Glo Assay (Promega #G7570) based on the quantification of ATP was applied according to the manufacturer's protocol to measure the amount of viable cells in culture. In brief, cells were seeded into 384-well plates at optimal density for each cell line. After 4 h, compounds were added at different concentrations in growth medium and incubated for another 72 h in a humidifying chamber at 37 °C and 5% CO2. Eventually, equal amounts of CellTiter-Glo reagent were added directly to the cells, incubated for 15 min and luminescence was recorded using PHERAstar plate reader (BMG LABTECH GmbH).

[2] = tested on: SU-DHL-1 xenografts; test: SU-DHL-1 xenograft experiment in SCID-bg mice; type: in vivo; conditions: 14 days; for T/C value (tumour volume of treated versus control): last day of treatment
Experimental: For the in vivo study, subcutaneous SU-DHL-1 xenografts were grown in SCID-bg mice and CSN5i-3 was administered orally at doses of 50 mg kg^−1 BID and 100 mg kg^−1 QD over a period of 14 days. […] Tumours were excised at the end of the study and the effect of compound treatment assessed on the pharmacodynamics markers, neddylated Cul1 and Skp2. […] All animal experiments were approved by the Kantonales Veterinäramt Basel-Stadt and were conducted in accordance with the Eidgenössisches Tierschutzgesetz and the Eidgenössische Tierschutzverordnung. SU-DHL-1 cells (1 × 10^7; DSMZ) were implanted subcutaneously into SCID-bg female 7–9-week-old mice (Taconic) and developing tumours were propagated once before subcutaneous transplantation for efficacy studies. Treatment was initiated when tumours reached 150–200 mm^3 volume. […] Randomization was conducted by using an internal computer software (Indigo). CSN5i-3 was formulated in 100 mM citrate buffer pH 3, PEG300, Kolliphor HS15, 1 N HCl (56:30:10:4%w/w). Tumour response is reported as percentage change in tumour volume at the last day of treatment relative to start of treatment. […] At day 10 of treatment blood, samples were taken and concentrations of CSN5i-3 were determined at indicated time points post dose using ultra-high-pressure liquid chromatography/tandem MS. At the end of treatment, tumours were excised and snap frozen in liquid nitrogen. Frozen tumours were pulverized using CryoPrep (Covaris Inc.) and protein lysates were prepared from tumour powder for immunoblot analysis.

[3] = Blood concentrations of CSN5i-3 in xenograft study; type: in vivo, SCID-bg mice; conditions: 50 mg kg^−1 BID and 100 mg kg^−1 QD oral
Experimental: All animal experiments were approved by the Kantonales Veterinäramt Basel-Stadt and were conducted in accordance with the Eidgenössisches Tierschutzgesetz and the Eidgenössische Tierschutzverordnung. SU-DHL-1 cells (1 × 10^7; DSMZ) were implanted subcutaneously into SCID-bg female 7–9-week-old mice (Taconic) and developing tumours were propagated once before subcutaneous transplantation for efficacy studies. Treatment was initiated when tumours reached 150–200 mm^3 volume. […] Randomization was conducted by using an internal computer software (Indigo). CSN5i-3 was formulated in 100 mM citrate buffer pH 3, PEG300, Kolliphor HS15, 1 N HCl (56:30:10:4%w/w). Tumour response is reported as percentage change in tumour volume at the last day of treatment relative to start of treatment. […] At day 10 of treatment blood, samples were taken and concentrations of CSN5i-3 were determined at indicated time points post dose using ultra-high-pressure liquid chromatography/tandem MS. At the end of treatment, tumours were excised and snap frozen in liquid nitrogen. Frozen tumours were pulverized using CryoPrep (Covaris Inc.) and protein lysates were prepared from tumour powder for immunoblot analysis.

[4] = tested on: SU-DHL-1 xenografts; test: Immunoblotting for Cul1 and Skp2 of tumours excised at end of treatment; type: in vivo, SCID-bg mice; conditions: tumours excised at the end of the study
Experimental: (a) SU-DHL-1 xenografts were grown in SCID-bg mice and dosed by oral administration with either vehicle control or CSN5i-3 at the indicated doses and schedules. Mean tumour volumes are shown±s.e.m. (n=4; P<0.05). (b) Immunoblotting for Cul1 and Skp2 of tumours excised at the end of treatment. (c) Pharmacokinetics of CSN5i-3 post second to last dose. Mean blood concentrations are shown±s.e.m. (n=4). […] Cells from longer compound incubations were also lysed in RIPA buffer, which allows the protein concentration to be determined by BCA Protein Assay Kit (Pierce). Proteins were separated by SDS-PAGE using 4-20% Tris-Glycine Gels (Invitrogen) and subsequently transferred to polyvinylidene difluoride membranes using a Trans-Blot Turbo System (BioRad). […] Cul1 (1:500; #718700), Cul2 (1:250; #7001792), Rbx1 (1:300; #342500) (Invitrogen); Fbxw7 (1:300; # 55290-1-AP), Fbxo22 (1:500; #13606-1-AP) (Proteintech); Cul3 (1:1,000; # […]), CSN5 (1:2,000; #[…]) (Bethyl Laboratories); Fbxo3 (1:300; #AP9195) (Abgent); p21 (1:500; #556431) (BD Biosciences); Fbxo30 (1:500; # H00084085-B01) (Abnova); β-Actin (1:5,000; #A5441) (Sigma-Aldrich); Fbxo7 (1:500; #PA527589) (Pierce). Horseradish peroxidase-conjugated secondary antibodies (1:3,000) were purchased from Promega AG and bound antibody was detected by enhanced chemiluminescence (Pierce). […]

[5] = 50 mg kg^−1 BID and 100 mg kg^−1 QD oral

## CC(C)n1nc(C(F)F)cc1C(=O)Nc1ccc([C@H]2[C@@H](O)CCCc3cncn32)c(-c2ccccc2)c1 [CSN5i-3, 3-(Difluoromethyl)-N-(6-((5S,6S)-6-hydroxy-6,7,8,9-tetrahydro-5H-imidazo[1,5-a]azepin-5-yl)-[1,1′-biphenyl]-3-yl)-1-isopropyl-1H-pyrazole-5-carboxamide]
[1]
  AMAX: about −50%
[2]; [5]
  tolerability based on body weight: well tolerated
  tumour growth outcome: Tumour stasis
[2]; 50 mg kg^−1 BID oral
  T/C value (tumour volume of treated versus control): 22%
[2]; 100 mg kg^−1 QD oral
  T/C value (tumour volume of treated versus control): 25%
[3]
  dose dependence of exposure: dose-linear exposure
[4]
  Cul1 deneddylation in tumours: inhibited
  Skp2 levels in tumours: reduced
